# In US12606561B2, “Substituted pyrazolo[1,5-a][1,3,5]triazines as CDK inhibitors” (QURIENT CO., LTD., priority 2018, dated 2026):
# Columns and labels:
# CDK5/p25 = biological target: T1, CDK5/p25 (Homo sapiens, UniProt Q00535); assay: Enzymatic assay for CDK5 (LANCE Ultra kinase assay, FRET based); type: biochemical; settings: ATP at Km
# T1 construct: purchased Invitrogen PR8543B
# Summary of the method: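 Compounds tested as 8 doses in 4-fold steps against CDK2/Cyclin A ([…]) or CDK5/p25 ([…]), with ATP at its Km and 68 nM ULight-MBP substrate. After 60 min at 23° C., EDTA plus Eu-labelled anti-phospho-MBP added; TR-FRET (615/665 nm) read after another 60 min.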
# OVCAR-3 = OVCAR-3 viability assay (CellTiter-Glo, 72 hours); type: cell-based; settings: Homo sapiens; OVCAR-3 cells
# Summary of the method: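 After a 24 h attachment period, cells received a 0.0015–10 uM compound titration and were incubated 72 h at 37° C, 5% CO2. Viability came from CellTiter-Glo luminescence measured in duplicate.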
# [1] = biological target: 28 CDKs family protein kinases (Homo sapiens, UniProt Q00535); assay: In vitro IC50 profile for CDKs family kinase (33PanQinase Activity Assay, ProQinase); type: biochemical; set-up: purchased ProQinase GmbH; host or cells: Sf9 insect cells or E. coli; settings: CDK5/p35NCK; read-out: CDK7 selectivity profile in CDKs family, IC50
# Experimental: The IC50 profile of compound 11 was determined using 28 CDKs family protein kinases through ProQinase GmbH (Freiburg, Germany). All the protocol and materials had been provided by ProQinase GmbH. Briefly, in the process, 90 μl H2O were added to each well of a compound dilution plate. To minimize potential precipitation, the H2O was added to the plate only a few minutes before the transfer of the compound solutions into the assay plates. The plate was shaken thoroughly, resulting in a “compound dilution plate/10% DMSO”. The compound dilution plate(s) were discarded at the end of the working day. For the assays (see below), 5 μl solution from each well of the compound dilution plate were transferred into the assay plates. The final volume of the assay was 50 μl. […] Kinases from external vendors, Carna Biosciences Inc.; Invitrogen Corp.; and Millipore Corp., were expressed, purified and quality-controlled by virtue of the vendors readings. […] Incorporation of ^33Pi was determined with a microplate scintillation counter (Microbeta, Wallac). […] The residual activity (in %) for each well of a particular plate was calculated by using the following formula: Res. Activity (%)=100×[(cpm of compound−low control)/(high control−low control)].
# T1 sequence (Q00535 whole entry): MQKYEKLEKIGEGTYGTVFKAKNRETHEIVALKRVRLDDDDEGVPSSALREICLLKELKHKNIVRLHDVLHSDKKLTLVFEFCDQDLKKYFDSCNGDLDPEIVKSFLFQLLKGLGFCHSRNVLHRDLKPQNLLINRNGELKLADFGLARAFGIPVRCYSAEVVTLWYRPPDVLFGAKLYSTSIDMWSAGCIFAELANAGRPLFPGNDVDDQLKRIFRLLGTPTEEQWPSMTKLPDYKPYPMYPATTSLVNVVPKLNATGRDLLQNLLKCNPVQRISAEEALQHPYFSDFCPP
# T1 sequence (Q15078 99-307 partner limits assumed): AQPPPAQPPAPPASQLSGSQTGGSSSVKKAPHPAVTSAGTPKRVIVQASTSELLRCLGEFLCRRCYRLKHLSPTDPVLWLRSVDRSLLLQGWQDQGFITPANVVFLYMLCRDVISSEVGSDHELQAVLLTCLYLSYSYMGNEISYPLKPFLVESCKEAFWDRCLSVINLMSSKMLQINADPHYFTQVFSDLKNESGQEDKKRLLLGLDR
# Chain of 28 CDKs family protein kinases (Q00535 whole entry): as the sequence (Q00535 whole entry) above
# Chain of 28 CDKs family protein kinases (Q15078 whole entry partner): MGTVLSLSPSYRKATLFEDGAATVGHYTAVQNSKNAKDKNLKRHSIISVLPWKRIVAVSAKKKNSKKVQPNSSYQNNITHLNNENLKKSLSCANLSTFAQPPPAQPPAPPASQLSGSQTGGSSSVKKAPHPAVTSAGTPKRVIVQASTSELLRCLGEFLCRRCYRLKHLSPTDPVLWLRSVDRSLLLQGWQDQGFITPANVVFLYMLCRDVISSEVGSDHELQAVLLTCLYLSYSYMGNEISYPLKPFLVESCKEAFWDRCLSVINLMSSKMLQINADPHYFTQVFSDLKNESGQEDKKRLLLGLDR
smiles,measurement,setting,value
CC(C)c1cnn2c(NCc3ccccc3-c3nccc4cc(NC(=O)/C=C/CN(C)C)ccc34)nc(N3CCC(N)CC3)nc12 [Compound 11],IC50,CDK5/p25,> 1 µM
same,IC50,OVCAR-3,< 1 µM
same,IC50,[1],7.86 µM
